In US10435399B2, “HDAC6 inhibitory heterocyclic compound” (TAKEDA PHARMACEUTICAL COMPANY LIMITED, priority 2017, dated 2019) one finds inhibition data, which are given here for 22 compounds.

Each structure is given as a SMILES string.

The experiment has as its target T1, HDAC6 enzyme (Homo sapiens, UniProt Q9UBN7).
T1 construct: transducing full length HDAC6 gene into Sf-9 insect cells; GST; purchased SignalChem; host or cells: Sf-9 insect cells
T1 sequence (Q9UBN7 1-1215): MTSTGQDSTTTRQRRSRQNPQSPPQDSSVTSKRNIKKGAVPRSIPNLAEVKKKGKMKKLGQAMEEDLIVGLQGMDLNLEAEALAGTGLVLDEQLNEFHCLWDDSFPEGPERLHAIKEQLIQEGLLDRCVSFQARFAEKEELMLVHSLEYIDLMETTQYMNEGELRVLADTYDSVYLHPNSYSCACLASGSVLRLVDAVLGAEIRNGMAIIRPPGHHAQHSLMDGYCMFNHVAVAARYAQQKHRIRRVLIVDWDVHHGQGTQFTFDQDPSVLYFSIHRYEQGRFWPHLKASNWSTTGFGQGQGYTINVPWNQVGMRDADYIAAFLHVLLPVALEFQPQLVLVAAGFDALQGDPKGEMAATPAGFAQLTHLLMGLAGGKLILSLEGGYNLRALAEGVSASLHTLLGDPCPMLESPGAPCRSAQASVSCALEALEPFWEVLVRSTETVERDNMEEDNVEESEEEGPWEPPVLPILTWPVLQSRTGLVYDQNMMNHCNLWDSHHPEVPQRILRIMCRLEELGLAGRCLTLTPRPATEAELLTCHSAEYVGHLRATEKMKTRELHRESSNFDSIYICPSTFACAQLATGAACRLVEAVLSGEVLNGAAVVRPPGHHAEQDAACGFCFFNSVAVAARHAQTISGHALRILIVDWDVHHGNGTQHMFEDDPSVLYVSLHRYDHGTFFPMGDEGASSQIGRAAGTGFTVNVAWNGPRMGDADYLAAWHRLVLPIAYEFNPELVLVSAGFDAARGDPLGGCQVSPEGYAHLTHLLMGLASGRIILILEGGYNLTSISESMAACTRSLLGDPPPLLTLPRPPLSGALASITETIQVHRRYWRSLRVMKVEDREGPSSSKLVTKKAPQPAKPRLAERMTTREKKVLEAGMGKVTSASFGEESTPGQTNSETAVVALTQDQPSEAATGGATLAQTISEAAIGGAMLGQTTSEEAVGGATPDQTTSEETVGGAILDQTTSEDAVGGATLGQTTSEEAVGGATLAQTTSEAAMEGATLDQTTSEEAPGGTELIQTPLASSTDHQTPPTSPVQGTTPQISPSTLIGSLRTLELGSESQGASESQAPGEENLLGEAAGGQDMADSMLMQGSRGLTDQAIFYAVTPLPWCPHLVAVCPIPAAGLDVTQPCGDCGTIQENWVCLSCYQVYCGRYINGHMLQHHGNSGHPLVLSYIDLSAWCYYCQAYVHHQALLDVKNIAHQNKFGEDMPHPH
The experiment is described as follows: HDAC6 enzyme inhibitory activity (HDAC-Glo I/II Assay kit). The class given is biochemical. Conditions: 10 μM; wells without enzyme = 100% inhibition; read-out: HDAC6 inhibitory rate (%) (10 μM). The procedure, abridged: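 Luminescent HDAC-Glo I/II readout after 20 min room-temperature reaction with substrate-developer, following 60 min compound–enzyme preincubation. Enzyme: full-length HDAC6 from Sf-9 cells, GST-purified; buffer 24 mM Tris-HCl pH 7.5, 0.01% Tween-20, glutathione, salts. Wells lacking enzyme define 100% inhibition.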
With `Cn1cc(-c2cccc(C#N)c2)c(N2Cc3ccc(-c4nnc(C(F)F)o4)cc3C2=O)n1` [Example 368, 3-(3-(6-(5-(difluoromethyl)-1,3,4-oxadiazol-2-yl)-1-oxo-1,3-dihydro-2H-isoindol-2-yl)-1-methyl-1H-pyrazol-4-yl)benzonitrile], the inhibition at 10 µM stood at 99%.
Next, `Cn1cc(-c2cccc(Cl)c2)c(N2Cc3ccc(-c4nnc(C(F)F)o4)cc3C2=O)n1` [Example 369, 2-(4-(3-chlorophenyl)-1-methyl-1H-pyrazol-3-yl)-6-(5-(difluoro-methyl)-1,3,4-oxadiazol-2-yl)isoindolin-1-one]: 99%; `O=C1c2cc(-c3nnc(C(F)F)o3)cnc2CN1Cc1cccc(C(F)F)c1` [Example 370, 6-(3-(difluoromethyl)benzyl)-3-(5-(difluoro-methyl)-1,3,4-oxadiazol-2-yl)-6,7-dihydro-5H-pyrrolo[3,4-b]pyridin-5-one]: 101%.
Next, `O=C1c2cc(-c3nnc(C(F)F)o3)cc(F)c2CN1C1(CNS(=O)(=O)CC(F)(F)F)CCCCC1` [Example 371, N-((1-(6-(5-(difluoro-methyl)-1,3,4-oxadiazol-2-yl)-4-fluoro-1-oxo-1,3-dihydro-2H-isoindol-2-yl)cyclohexyl)methyl)-2,2,2-trifluoroethane-sulfonamide]: 99%.
Next, `O=C1c2cc(-c3nnc(C(F)F)o3)cc(F)c2CN1c1ccccc1Br` [Example 372, 2-(2-bromophenyl)-6-(5-(difluoromethyl)-1,3,4-oxadiazol-2-yl)-4-fluoroisoindolin-1-one]: 92%; `O=C1c2cc(-c3nnc(C(F)F)o3)ccc2CN1c1cccc(F)c1Br` [Example 373, 2-(2-bromo-3-fluorophenyl)-6-(5-(difluoromethyl)-1,3,4-oxadiazol-2-yl)isoindolin-1-one]: 97%; `O=C1c2cc(-c3nnc(C(F)F)o3)cc(F)c2CN1[C@@H]1CCOC[C@@H]1NCC(F)(F)F` [Example 374, 6-(5-(difluoromethyl)-1,3,4-oxadiazol-2-yl)-4-fluoro-2-((3R,4R)-3-((2,2,2-trifluoroethyl)amino)tetrahydro-2H-pyran-4-yl)isoindolin-1-one]: 99%.
As for `O=C1c2cc(-c3nnc(C(F)F)o3)cc(F)c2CN1[C@@H]1CCOC[C@@H]1NCC(F)(F)C(F)(F)F` [Example 375, 6-(5-(difluoromethyl)-1,3,4-oxadiazol-2-yl)-4-fluoro-2-((3R,4R)-3-((2,2,3,3,3-pentafluoropropyl)amino)tetrahydro-2H-pyran-4-yl)isoindolin-1-one], the inhibition at 10 µM worked out at 101%.
`N#Cc1cccc(-c2ccccc2N2Cc3c(F)cc(-c4nnc(C(F)F)o4)cc3C2=O)c1` [Example 376, 2′-(6-(5-(difluoro-methyl)-1,3,4-oxadiazol-2-yl)-4-fluoro-1-oxo-1,3-dihydro-2H-isoindol-2-yl)biphenyl-3-carbonitrile]: the inhibition at 10 µM stood at 101%.
As for `N#Cc1cccc(-c2c(F)cccc2N2Cc3ccc(-c4nnc(C(F)F)o4)cc3C2=O)c1` [Example 377, 2′-(6-(5-(difluoro-methyl)-1,3,4-oxadiazol-2-yl)-1-oxo-1,3-dihydro-2H-isoindol-2-yl)-6′-fluorobiphenyl-3-carbonitrile], the inhibition at 10 µM was 101%.
Take `N#Cc1cccc(-c2cc(F)ccc2N2Cc3c(F)cc(-c4nnc(C(F)F)o4)cc3C2=O)c1` [Example 378, 2′-(6-(5-(difluoro-methyl)-1,3,4-oxadiazol-2-yl)-4-fluoro-1-oxo-1,3-dihydro-2H-isoindol-2-yl)-5′-fluorobiphenyl-3-carbonitrile]: the inhibition at 10 µM is 99%.
Take `O=C1c2cc(-c3nnc(C(F)F)o3)cc(F)c2CN1C[C@@H]1CCCN1C(=O)C1CC1` [Example 379, 2-(((2S)-1-(cyclopropyl-carbonyl)pyrrolidin-2-yl)methyl)-6-(5-(difluoromethyl)-1,3,4-oxadiazol-2-yl)-4-fluoro-isoindolin-1-one]: the inhibition at 10 µM was 97%.
Under `O=C1c2cc(-c3nnc(C(F)F)o3)cc(F)c2CN1C[C@@H]1CCCN1S(=O)(=O)CC(F)(F)F` [Example 380, 6-(5-(difluoro-methyl)-1,3,4-oxadiazol-2-yl)-4-fluoro-2-(((2S)-1-((2,2,2-trifluoroethyl)sulfonyl)pyrrolidin-2-yl)methyl) isoindolin-1-one] stands 99%; under `O=C1c2cc(-c3nnc(C(F)F)o3)cc(F)c2CN1c1ccc(F)cc1-c1cnn(C(F)F)c1` [Example 381, 6-(5-(difluoro-methyl)-1,3,4-oxadiazol-2-yl)-2-(2-(1-(difluoro-methyl)-1H-pyrazol-4-yl)-4-fluorophenyl)-4-fluoroisoindolin-1-one], 100%; under `Cn1cc(-c2cc(F)ccc2N2Cc3c(F)cc(-c4nnc(C(F)F)o4)cc3C2=O)cn1` [Example 382, 6-(5-(difluoro-methyl)-1,3,4-oxadiazol-2-yl)-4-fluoro-2-(4-fluoro-2-(1-methyl-1H-pyrazol-4-yl)phenyl) isoindolin-1-one], 98%.
`O=C1c2cc(-c3nnc(C(F)F)o3)cc(F)c2CN1c1ccc(F)cc1-c1cccc(F)c1` [Example 383, 2-(3′,5-difluoro-biphenyl-2-yl)-6-(5-(difluoro-methyl)-1,3,4-oxadiazol-2-yl)-4-fluoroiso-indolin-1-one]: the inhibition at 10 µM is 95%.
For `Cn1cc(-c2cccc(F)c2)c(N2Cc3ccc(-c4nnc(C(F)F)o4)cc3C2=O)n1` [Example 384, 6-(5-(difluoro-methyl)-1,3,4-oxadiazol-2-yl)-2-(4-(3-fluoro-phenyl)-1-methyl-1H-pyrazol-3-yl) isoindolin-1-one], the inhibition at 10 µM came out at 99%.
Under `O=C1c2cc(-c3nnc(C(F)F)o3)ccc2CN1c1ccc(F)cc1-c1cnn(C(F)F)c1` [Example 385, 6-(5-(difluoro-methyl)-1,3,4-oxadiazol-2-yl)-2-(2-(1-(difluoro-methyl)-1H-pyrazol-4-yl)-4-fluorophenyl) isoindolin-1-one] stands 101%; under `O=C1c2cc(-c3nnc(C(F)F)o3)ccc2CN1c1ccc(F)cc1-c1cccc(F)c1` [Example 386, 2-(3′,5-difluoro-biphenyl-2-yl)-6-(5-(difluoro-methyl)-1,3,4-oxadiazol-2-yl) isoindolin-1-one], 101%; under `O=C1c2cc(-c3nnc(C(F)F)o3)ccc2CN1c1cccnc1-c1cnn(C(F)F)c1` [Example 387, 6-(5-(difluoro-methyl)-1,3,4-oxadiazol-2-yl)-2-(2-(1-(difluoro-methyl)-1H-pyrazol-4-yl)pyridin-3-yl) isoindolin-1-one], 101%.
Under `Cn1nc(C(F)(F)F)cc1-c1cc(F)ccc1N1Cc2c(F)cc(-c3nnc(C(F)F)o3)cc2C1=O` [Example 388, 6-(5-(difluoro-methyl)-1,3,4-oxadiazol-2-yl)-4-fluoro-2-(4-fluoro-2-(1-methyl-3-(trifluoro-methyl)-1H-pyrazol-5-yl)phenyl) isoindolin-1-one] stands 101%; under `Cn1nc(C(F)(F)F)cc1-c1cc(F)ccc1N1Cc2ccc(-c3nnc(C(F)F)o3)cc2C1=O` [Example 389, 6-(5-(difluoro-methyl)-1,3,4-oxadiazol-2-yl)-2-(4-fluoro-2-(1-methyl-3-(trifluoro-methyl)-1H-pyrazol-5-yl)phenyl) isoindolin-1-one], 101%.
